Columns and labels:
[1] = biological target: T1, ornithine decarboxylase (ODC) (Homo sapiens, UniProt P11926); settings: reported by some (Danzin, 1987); cited from earlier work
T1 sequence (P11926 1-461): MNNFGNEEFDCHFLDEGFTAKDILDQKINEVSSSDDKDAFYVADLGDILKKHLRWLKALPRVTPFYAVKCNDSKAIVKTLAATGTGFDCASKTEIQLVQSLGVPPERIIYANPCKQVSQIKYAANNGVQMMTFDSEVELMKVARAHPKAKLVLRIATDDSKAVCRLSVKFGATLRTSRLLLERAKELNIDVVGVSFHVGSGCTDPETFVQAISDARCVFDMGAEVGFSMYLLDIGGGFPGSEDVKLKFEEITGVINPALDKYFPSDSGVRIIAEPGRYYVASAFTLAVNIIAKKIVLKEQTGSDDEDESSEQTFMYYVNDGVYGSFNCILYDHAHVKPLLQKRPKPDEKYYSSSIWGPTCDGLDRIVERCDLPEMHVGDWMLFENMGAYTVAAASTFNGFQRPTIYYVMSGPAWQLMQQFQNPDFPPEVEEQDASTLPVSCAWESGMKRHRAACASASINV

[2] = Solubility of DFMO; assay type: physicochemical
[3] = healthy men; cited from earlier work
[4] = any route of drug administration; cited from earlier work
[5] = system: polyamine pools; settings: cited from earlier work
[6] = system: advanced solid tumors or lymphomas; settings: patients with advanced solid tumors or lymphomas; cited from earlier work
[7] = oral administration; cited from earlier work

## NCCC[C@](N)(C(=O)O)C(F)F [(−)-DFMO, alpha-difluoromethylornithine]
[1]
  enantiomer responsible for ODC inhibition: enantiomer primarily responsible for ODC inhibition

## NCCC[C@](N)(C(=O)O)C(F)F (racemic) [DFMO, alpha-difluoromethylornithine]
[2]
  water solubility: very water-soluble
[2]; neutral pH versus acid
  solubility of DFMO at a neutral pH: relatively lower solubility
[3]
  elimination half-life t½: about 3.5 hours
  share of drug elimination accounted for by renal clearance: 83%
[4]
  therapeutic responses: No therapeutic responses
[5]
  minimum effective dose (MED) in significantly reducing polyamine pools in vivo: about 0.43 g/day
[6]
  therapeutic responses: No therapeutic responses
[7]
  maximum tolerated dose: about 12 g/m^2/day

From patent US20020110590A1, “Pharmaceutical formulation containing DEMO for the treatment of cancer” (Ilex Oncology, Inc., priority 1996, published 2002)
